Laboratory results reported in paper PMC7391767, “Molecular mechanisms underlying menthol binding and activation of TRPM8 ion channel” (Nature Communications, 2020).
pKd: −log10 of the molar value. Values joined by “and” are separate entries in the source; they are usually repeats but may differ in a detail not shown here. Equal entries are not always repeated. Where two headings read alike, the source gives them in different places.

How the values were obtained:
Assay type in all cases: cell-based
wild-type TRPM8 [1] = molecular target: T1, wild-type TRPM8 (Mus musculus, UniProt Q8R4D5); test: whole-cell patch-clamp recording of ligand activation; conditions: WT
T1 construct: expressed in transfected cells; host or cells: HEK293T
T1 sequence (Q8R4D5 whole entry): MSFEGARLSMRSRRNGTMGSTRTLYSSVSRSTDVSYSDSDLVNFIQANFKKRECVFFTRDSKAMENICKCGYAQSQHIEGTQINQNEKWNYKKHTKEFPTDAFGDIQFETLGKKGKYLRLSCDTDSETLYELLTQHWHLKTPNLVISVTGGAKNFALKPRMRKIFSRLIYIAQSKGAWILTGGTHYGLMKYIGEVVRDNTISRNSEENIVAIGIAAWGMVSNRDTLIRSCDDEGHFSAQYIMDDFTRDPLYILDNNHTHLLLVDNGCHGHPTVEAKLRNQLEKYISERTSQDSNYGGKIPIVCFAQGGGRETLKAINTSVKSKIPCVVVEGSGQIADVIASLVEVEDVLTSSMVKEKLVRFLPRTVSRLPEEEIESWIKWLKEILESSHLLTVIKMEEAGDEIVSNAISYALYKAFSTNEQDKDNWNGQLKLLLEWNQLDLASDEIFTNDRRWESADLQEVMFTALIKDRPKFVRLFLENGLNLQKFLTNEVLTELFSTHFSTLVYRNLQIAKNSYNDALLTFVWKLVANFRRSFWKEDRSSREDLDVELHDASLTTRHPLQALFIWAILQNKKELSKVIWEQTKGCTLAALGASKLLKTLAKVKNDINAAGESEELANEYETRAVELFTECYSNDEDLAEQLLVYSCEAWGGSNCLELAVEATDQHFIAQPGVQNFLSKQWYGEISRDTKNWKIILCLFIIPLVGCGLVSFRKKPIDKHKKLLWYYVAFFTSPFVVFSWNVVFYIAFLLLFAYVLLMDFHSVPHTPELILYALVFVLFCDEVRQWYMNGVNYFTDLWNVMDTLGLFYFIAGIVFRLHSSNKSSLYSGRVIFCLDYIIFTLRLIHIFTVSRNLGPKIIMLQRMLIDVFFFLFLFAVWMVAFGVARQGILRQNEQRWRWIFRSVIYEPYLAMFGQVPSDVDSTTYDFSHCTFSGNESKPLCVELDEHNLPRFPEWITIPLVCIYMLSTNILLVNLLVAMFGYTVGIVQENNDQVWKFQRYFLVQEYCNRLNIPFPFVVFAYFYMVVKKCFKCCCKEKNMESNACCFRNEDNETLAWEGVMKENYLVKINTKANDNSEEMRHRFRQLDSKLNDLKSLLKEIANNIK
Experimental: Murine TRPM8 was used in this study. Point mutations were made by Fast Mutagenesis Kit V2 (SBS Genetech). Primers used to generate point mutations are summarized in Supplementary Table 2.
Cells were transiently transfected with cDNA constructs by Lipofectamine 3000 (Life Technologies) following the manufacturer’s protocol. Patch-clamp recordings were performed 1–2 days after transfection.
(§1) Patch-clamp recordings were performed with a HEKA EPC10 amplifier controlled by PatchMaster software (HEKA). Whole-cell recordings were performed at ±80 mV. Patch pipettes were prepared from borosilicate glass and fire-polished to resistance of ~4 MΩ. For whole-cell recording, serial resistance was compensated by 60%. For single-channel recordings, patch pipettes were fire-polished to a higher resistance of 6-to-10 MΩ and then recorded in the inside-out configuration. To maximize the chance of obtaining a patch with only one channel, single-channel recordings were performed about 8 h after transfection. A solution with 130 mM NaCl, 10 mM glucose, 0.2 mM EDTA, and 3 mM HEPES (pH 7.2) was used in both bath and pipette for either whole-cell or single-channel recordings. Membrane potential was clamped at +80 mV for single-channel recordings. Current was sampled at 10 kHz and filtered at 2.9 kHz. All recordings were performed at room temperature (22 °C) with the maximum variation of 1 °C.
(§2) Ligands such as menthol and its analogs were perfused to membrane patch by a gravity-driven system (RSC-200, Bio-Logic). Bath and ligand solution were delivered through separate tubes to minimize the mixing of solutions. Patch pipette was placed in front of the perfusion tube outlet.
Data from whole-cell recordings were analyzed in Igor Pro version 6.1 (WaveMatrix). EC50 values were derived from fitting a Hill equation to the concentration–response relationship. […] To distinguish these possibilities, dissociation constant (Kd) for ligand binding was estimated assuming the following gating scheme:1 C0↔KdC1↔LO, where L is the equilibrium constant for the final closed-to-open transition.

TRPM8 F839A = molecular target: T2, TRPM8 F839A (Mus musculus, UniProt Q8R4D5, F839A); test: whole-cell patch-clamp and thermodynamic mutant cycle analysis
T2 construct: expressed in transfected cells; host or cells: HEK293T
T2 sequence (Q8R4D5 whole entry F839A): as the sequence (Q8R4D5 whole entry) above, with F839A counted along it
Experimental: (§3) Murine TRPM8 was used in this study. Point mutations were made by Fast Mutagenesis Kit V2 (SBS Genetech). Primers used to generate point mutations are summarized in Supplementary Table 2. All mutations were confirmed by sequencing.
(§4) HEK293T cells purchased from Kunming Cell Bank, Kunming Institute of Zoology, Chinese Academy of Sciences (ATCC, CRL-3216) were cultured in Dulbecco’s modified Eagle’s medium supplemented with 20 mM L-glutamine and 10% fetal bovine serum. Cells were transiently transfected with cDNA constructs by Lipofectamine 3000 (Life Technologies) following the manufacturer’s protocol. Patch-clamp recordings were performed 1–2 days after transfection.
as §1, §2
(§5) Data from whole-cell recordings were analyzed in Igor Pro version 6.1 (WaveMatrix). EC50 values were derived from fitting a Hill equation to the concentration–response relationship. Changes in EC50 by point mutation may be caused by either perturbation of ligand bind or channel gating or both. To distinguish these possibilities, dissociation constant (Kd) for ligand binding was estimated assuming the following gating scheme:1 C0↔KdC1↔LO, where L is the equilibrium constant for the final closed-to-open transition.
(§6) To perform thermodynamic cycle analysis, Kd values of four channel-ligand combinations (WT channel, menthol: Kd _1; Mutant channel, menthol: Kd _2; WT channel, menthol analog: Kd _3; Mutant channel, menthol analog: Kd _4) were determined separately. The strength of coupling was determined by the coupling energy (kT multiplied by LnΩ, where k is the Boltzmann constant and T is temperature in Kelvin). LnΩ was calculated by Eq. (2) as[51]2 LnΩ=LnKd_1⋅Kd_4/Kd_2⋅Kd_3.

TRPM8 I846V = molecular target: T3, TRPM8 I846V (Mus musculus, UniProt Q8R4D5, I846V); test: as above
T3 construct: expressed in transfected cells; host or cells: HEK293T
T3 sequence (Q8R4D5 whole entry I846V): as the sequence (Q8R4D5 whole entry) above, with I846V counted along it
Experimental: as §3, §4, §1, §2, §5, §6

TRPM8 L843A = molecular target: T4, TRPM8 L843A (Mus musculus, UniProt Q8R4D5, L843A); test: as above
T4 construct: expressed in transfected cells; host or cells: HEK293T
T4 sequence (Q8R4D5 whole entry L843A): as the sequence (Q8R4D5 whole entry) above, with L843A counted along it
Experimental: as §3, §4, §1, §2, §5, §6

TRPM8 L843I = molecular target: T5, TRPM8 L843I (Mus musculus, UniProt Q8R4D5, L843I); test: as above
T5 construct: expressed in transfected cells; host or cells: HEK293T
T5 sequence (Q8R4D5 whole entry L843I): as the sequence (Q8R4D5 whole entry) above, with L843I counted along it
Experimental: as §3, §4, §1, §2, §5, §6

TRPM8 L843V = molecular target: T6, TRPM8 L843V (Mus musculus, UniProt Q8R4D5, L843V); test: as above
T6 construct: expressed in transfected cells; host or cells: HEK293T
T6 sequence (Q8R4D5 whole entry L843V): as the sequence (Q8R4D5 whole entry) above, with L843V counted along it
Experimental: as §3, §4, §1, §2, §5, §6

TRPM8 V775A = molecular target: T7, TRPM8 V775A (Mus musculus, UniProt Q8R4D5, V775A); test: as above
T7 construct: expressed in transfected cells; host or cells: HEK293T
T7 sequence (Q8R4D5 whole entry V775A): as the sequence (Q8R4D5 whole entry) above, with V775A counted along it
Experimental: as §3, §4, §1, §2, §5, §6

TRPM8 Y745F = molecular target: T8, TRPM8 Y745F (Mus musculus, UniProt Q8R4D5, Y745F); test: as above
T8 construct: expressed in transfected cells; host or cells: HEK293T
T8 sequence (Q8R4D5 whole entry Y745F): as the sequence (Q8R4D5 whole entry) above, with Y745F counted along it
Experimental: as §3, §4, §1, §2, §5, §6

wild-type TRPM8 [2] = molecular target: T1, wild-type TRPM8; test: open probability from noise analysis of macroscopic current and single-channel recordings; conditions: wild-type TRPM8; near saturating concentration (menthol 500 µM)
Experimental: as §1
From single-channel recordings, the open probability (Po) was calculated after events detection with a hidden Markov approach in the software QuB[49] (http://www.qub.buffalo.edu/). A dead time of 0.32 ms was imposed. As a complementary approach, Po was also estimated from noise analysis[52] of whole-cell recordings. Briefly, the mean current amplitude (I), the squared deviations in current amplitude from the mean value (σ^2), and the single-channel current (i) were measured experimentally from a membrane patch of ion channels. Then the number of ion channels clamped in that patch (N) was determined as3 N=I^2/i⋅I−σ^2.
The maximum current when each of ion channel is at the open state with a Po of 1 is equal to i × N. Then the open probability was calculated as the ratio between the measured macroscopic current and the maximum current calculated by noise analysis. To estimate channel conductance, current amplitude was estimated from all-point histogram of single-channel recordings.

[3] = mutant cycle menthol vs labelled analog

## CC1CCCC(O)C1 (stereo not shown) [3-methylcyclohexanol]
wild-type TRPM8 [1]
  L (equilibrium constant between closed and open states upon ligand binding), Ave: 0.1737
  L, single recording: 0.1532 and 0.192 and 0.1757
  Ratio X1 (Kd menthol / Kd labelled analog): 1.53
wild-type TRPM8 [1]; 100 microM
  concentration–response curve value, ave: 0.03758
  concentration–response curve value, single recording: 0.03758
wild-type TRPM8 [1]; 500 microM
  concentration–response curve value, ave: 0.06444
  concentration–response curve value, single recording: 0.0748 and 0.0637 and 0.05481
wild-type TRPM8 [1]; 1000 microM
  concentration–response curve value, ave: 0.104
  concentration–response curve value, single recording: 0.09939 and 0.1207 and 0.09185
wild-type TRPM8 [1]; 5000 microM
  concentration–response curve value, ave: 0.1359
  concentration–response curve value, single recording: 0.1092 and 0.1503 and 0.1483
wild-type TRPM8 [1]; 10000 microM
  concentration–response curve value, ave: 0.1449
  concentration–response curve value, single recording: 0.1156 and 0.169 and 0.1502
wild-type TRPM8 [1]; calculated from concentration–response curves (EC50 and Po max), read-out: Kd, Ave
  pKd: 3.20
wild-type TRPM8 [1]; read-out: Kd, single recording
  pKd: 3.57 and 3.14 and 3.05
TRPM8 F839A
  Ratio X2 (Kd menthol / Kd labelled analog): 0.34
TRPM8 F839A; menthol vs labelled analog
  Omega(X1/X2): 4.45
TRPM8 F839A; [3]
  Coupling Energy: 1.49 kT
TRPM8 I846V
  L (equilibrium constant between closed and open states upon ligand binding), Ave: 5.486
  Ratio X2 (Kd menthol / Kd labelled analog): 0.0226
TRPM8 I846V; 100 microM
  concentration–response curve value, ave: 0.2999
  concentration–response curve value, single recording: 0.4 and 0.341 and 0.2563 and 0.2026
TRPM8 I846V; 500 microM
  concentration–response curve value, ave: 0.4287
  concentration–response curve value, single recording: 0.5097 and 0.4021 and 0.4664 and 0.3363
TRPM8 I846V; 5000 microM
  concentration–response curve value, ave: 0.6797
  concentration–response curve value, single recording: 0.6614 and 0.7654 and 0.6405 and 0.6515
TRPM8 I846V; 10000 microM
  concentration–response curve value, ave: 0.686
  concentration–response curve value, single recording: 0.6689 and 0.7334 and 0.6291 and 0.7125
TRPM8 I846V; calculated from concentration–response curves, read-out: Kd, Ave
  pKd: 2.28
TRPM8 I846V; concentration cell empty
  concentration–response curve value, ave: 0.07916
TRPM8 I846V; menthol vs labelled analog
  Omega(X1/X2): 67.65
TRPM8 I846V; [3]
  Coupling Energy: 4.21 kT
TRPM8 I846V; read-out: Kd, single recording
  pKd: 2.34 and 2.80 and 2.58 and 1.91
TRPM8 L843A
  Ratio X2 (Kd menthol / Kd labelled analog): 10.91
TRPM8 L843A; menthol vs labelled analog
  Omega(X1/X2): 0.14
TRPM8 L843A; [3]
  Coupling Energy: 1.96 kT
TRPM8 L843I
  Ratio X2 (Kd menthol / Kd labelled analog): 0.32
TRPM8 L843I; menthol vs labelled analog
  Omega(X1/X2): 4.84
TRPM8 L843I; [3]
  Coupling Energy: 1.58 kT
TRPM8 L843V
  Ratio X2 (Kd menthol / Kd labelled analog): 1.21
TRPM8 L843V; menthol vs labelled analog
  Omega(X1/X2): 1.27
TRPM8 L843V; [3]
  Coupling Energy: 0.24 kT
TRPM8 V775A
  Ratio X2 (Kd menthol / Kd labelled analog): 3.60
TRPM8 V775A; menthol vs labelled analog
  Omega(X1/X2): 0.43
TRPM8 V775A; [3]
  Coupling Energy: 0.86 kT
TRPM8 Y745F
  Ratio X2 (Kd menthol / Kd labelled analog): 5.57
TRPM8 Y745F; menthol vs labelled analog
  Omega(X1/X2): 0.28
TRPM8 Y745F; [3]
  Coupling Energy: 1.29 kT
wild-type TRPM8 [2]
  maximum open probability (Po max): much reduced
